Where no end group is shown, it is not given here.
How the values were obtained:
[1] = Estimation of helicity from CD; format: physicochemical; conditions: peptide 100 μM, from [θ]mr at 222 nm; for % α-helix, H2O: H2O (10 mM sodium phosphate, pH 7.0)
Method: CD spectra were measured on a J-810 spectropolarimeter (JASCO) using a 1.0 mm path-length cell. […] Three scans were conducted from 190 to 260 nm and the data are expressed in terms of mean residue molar ellipticity [θ]mr. The mean residue ellipticity, [θ]mr (deg cm^2 dmol^-1), was calculated according to the equation [θ]mr = (100θ)/(clN), where θ is the measured ellipticity (mdeg), c is the sample concentration (mM), l is the path length (cm), and N is the number of amino acids. Percent α-helicity was calculated using the equation ([θ]mr222nm—3000)/(− 39,000 × 100)[29]. Reference values for [θ]mr222nm = 0 and 36,000 (deg cm^2 dmol^−1) were used for 0% and 100% helicity, respectively[30].

[2] = tested on: Gram-negative and Gram-positive bacteria; assay: MIC over the panel of six strains (GM, range); format: cell-based; conditions: six strains of Table 1; average value ± SD
Method: The antimicrobial activity of the peptides, i.e., their MIC values, were determined against Escherichia coli (KCTC 1682), Salmonella typhimurium (KCTC 1926), Pseudomonas aeruginosa (KCTC 1637), Bacillus subtilis (KCTC 3068), Staphylococcus epidermidis (KCTC 1917), Staphylococcus aureus (KCTC 1621), and Methicillin-resistant Staphylococcus aureus (CCARM 3089, 3090 and 3095) using broth microdilution in a 96-well plate according to existing methodologies[23]. Bacteria were grown at 37 ℃ on a spinner culture until a mid-log phase diluted to 2 × 10^6 CFU/ml in 1% peptone. The bacterial suspension was added to 100 μl of the sample solution (i.e., serial twofold dilution in 1% peptone). […] All experiments were performed in triplicate and included growth and sterility controls.

[3] = tested on: S. aureus (KCTC 1621) cytoplasmic membrane; assay: Membrane depolarization assay (diSC3-5); format: cell-based, Staphylococcus aureus; conditions: 2 × MIC, monitored over 1400 s
Method: The cytoplasmic membrane depolarization activity of the peptides was measured using the membrane potential sensitive dye diSC3-5, as previously described[31],[32]. Briefly, S. aureus (KCTC 1621) was grown at 37 ℃ with agitation until the mid-log phase (OD600 = 0.3) and was harvested by centrifugation. Cells are washed twice with a buffer solution (i.e., 20 mM Glucose, 5 mM HEPES, 100 mM KCl; pH 7.4) and were resuspended to an OD600 = 0.05 in the buffer. Membrane depolarization was monitored by recording changes in the intensity of fluorescence emission of diSC3-5 after peptide concentration.

S. aureus (KCTC 1621) [4] = assay: SYTOX Green uptake assay; format: cell-based, Staphylococcus aureus; conditions: 2 × MIC, SYTOX 0.1 μM, PBS pH 7.4
Method: The membrane permeabilization activity of the peptides was determined by using the SYTOX Green uptake assay, as described previously[33]. S. aureus (KCTC 1621) grown at 37 ℃ until the mid-log phase (OD600 = 0.4). The cell pellet was washed using PBS (pH 7.4) and was diluted to an OD600 = 0.05 in PBS (pH 7.4); SYTOX was added to the final concentration of 0.1 μM and this solution was pre-incubated in the dark at 4 ℃ for 16 h. Fluorescence was monitored using a F-4500 FL spectrophotometer (Hitachi, Japan) and excitation and emission wavelengths of 480 nm and 520 nm, respectively.

E. coli (KCTC 1682) = assay: Confocal laser scanning microscopy of FITC-labeled peptides; format: cell-based, Escherichia coli; conditions: FITC-labeled peptide 10 μM, 37 ℃, 30 min
Method: (§1) E. coli (KCTC 1682) and S. aureus (KCTC 1621) were grown at mid-log phase and washed three times with PBS (pH 7.4). The bacteria were diluted at 10^6 CFU/ml and incubated with FITC-labeled peptides (10 μM) at 37 ℃ for 30 min. After incubation, this solution was washed thrice with PBS and was then transferred to a confocal dish. […] Fluorescent images were obtained with a 488 nm bandpass filter for FITC excitation.

S. aureus (KCTC 1621) [5] = assay: as above; format: cell-based, Staphylococcus aureus; conditions: FITC-labeled peptide 10 μM, 37 ℃, 30 min
Method: as §1

Substance | % α-helix, 50% TFE [1] | % α-helix, H2O [1] | GM (geometric mean of MIC values from selected bacterial strains) [2] | Membrane depolarization of S. aureus (diSC3-5 fluorescence) [3] | SYTOX Green uptake (fluorescence) (S. aureus (KCTC 1621) [4]) | Localization of peptide in E. coli (E. coli (KCTC 1682)) | Localization of peptide in S. aureus (S. aureus (KCTC 1621) [5])
RGLRRLG-NH2 [R1-G7] | 6.9% | 5.6% | > 64 µM |  |  |  | 
RGLRRLARKIAHAVKKYG-NH2 [G7,13A] | 33.9% | 7.6% | 4.5(± 2.9) μM | induced a significant membrane depolarization | induced the maximal fluorescence |  | 
RALRRLARKIAHAVKKYG-NH2 [G2,7,13A] | 44.4% | 5.7% | 4.3(± 2.9) μM | induced a significant membrane depolarization | induced the maximal fluorescence | likely bound to the cell membrane | likely bound to the cell membrane

Source: paper PMC9871035, “Discovery of structural and functional transition sites for membrane-penetrating activity of sheep myeloid antimicrobial peptide-18” (Scientific Reports, 2023)
